US20130217655A1, “COMPOSITIONS FOR TREATING PSORIASIS OF THE SCALP” (Dermipsor Ltd., priority 2010, published 2013)

Assay: skin penetration of calcipotriol from the formulation
Settings: calcipotriol in the present formulation, topical

## C=C1/C(=C\C=C2/CCC[C@]3(C)[C@@H]([C@H](C)/C=C/[C@@H](O)C4CC4)CC[C@@H]23)C[C@@H](O)C[C@@H]1O [Calcipotriol]
  penetration of the skin: does not penetrate the skin
